Results reported in ChEMBL document CHEMBL1132529 (Bioorg Med Chem Lett, 1999).

Biological target: T1, Neutrophil elastase (Homo sapiens, UniProt P08246)
T1 sequence (P08246 whole entry): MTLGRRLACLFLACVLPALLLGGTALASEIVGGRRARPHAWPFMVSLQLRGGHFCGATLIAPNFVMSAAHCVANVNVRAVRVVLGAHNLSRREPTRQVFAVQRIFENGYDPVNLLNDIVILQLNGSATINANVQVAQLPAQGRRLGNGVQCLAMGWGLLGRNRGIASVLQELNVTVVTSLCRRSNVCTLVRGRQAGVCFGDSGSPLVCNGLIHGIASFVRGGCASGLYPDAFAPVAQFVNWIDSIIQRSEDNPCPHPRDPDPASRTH
Assay: Inhibitory constant for human neutrophil elastase

- Ki: 270 µM
Compound: CC[C@@H](C)[C@H](NCc1ccccc1)C(=O)N[C@@H](CCCCNC(=O)C12CC3CC(CC(C3)C1)C2)C(=O)N[C@@H](CS)C(=O)N[C@H](C(=O)O)C(C)C
